# Source: patent US10597388B2, “Pyridazinone herbicides” (FMC CORPORATION, priority 2014, dated 2020)
# Experiments:
# Test in all cases: Test E greenhouse herbicide test, pre- and postemergence
# Assay type in all cases: in vivo
# [1] = test system: pigweed, palmer (palmer pigweed, Amaranthus palmeri)
# In short: (§1)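 Pre- and postemergence sprays, same solvent–surfactant formulation. Substrate: silt loam (pre), peat-based mix (post, 1–4 leaf, 2–18 cm). Readout: visual control rating 0–100 against controls at 14–21 d.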
# [2] = test system: lambsquarters (Chenopodium album); conditions: Preemergence
# In short: as §1
# [3] = test system: beggarticks (hairy beggarticks, Bidens pilosa)
# In short: as §1
# [4] = test system: velvetleaf (Abutilon theophrasti); conditions: Preemergence
# In short: as §1
# [5] = test system: waterhemp (common waterhemp, Amaranthus rudis)
# In short: as §1
# [6] = test system: field bindweed (Convolvulus arvensis)
# In short: as §1
# [7] = test system: johnsongrass (Sorghum halepense); conditions: Preemergence
# In short: as §1
# [8] = test system: nightshade (eastern black nightshade, Solanum ptycanthum); conditions: Preemergence
# In short: as §1
# [9] = test system: surinam grass (Brachiaria decumbens); conditions: Preemergence
# In short: as §1
# kochia (Kochia scoparia) = test system: kochia (Kochia scoparia)
# In short: as §1
# [10] = test system: foxtail, giant (giant foxtail, Setaria faberii); conditions: Preemergence
# In short: as §1
# [11] = test system: crabgrass, large (large crabgrass, Digitaria sanguinalis); conditions: Preemergence
# In short: as §1
# [12] = 62 g ai/ha, Postemergence, scale 0 to 100 (0 no effect, 100 complete control)
# [13] = 62 g ai/ha, Preemergence, scale 0 to 100 (0 no effect, 100 complete control)
# [14] = 125 g ai/ha, Postemergence, scale 0 to 100 (0 no effect, 100 complete control)
# [15] = 125 g ai/ha, Preemergence, scale 0 to 100 (0 no effect, 100 complete control)
# [16] = 250 g ai/ha, Postemergence, scale 0 to 100 (0 no effect, 100 complete control)
# [17] = Postemergence, 16 g ai/ha, visual, scale 0 no effect to 100 complete control
# [18] = Postemergence, 31 g ai/ha, visual, scale 0 no effect to 100 complete control
# [19] = Preemergence, 16 g ai/ha, scale 0 to 100, 0 no effect, 100 complete control
# [20] = Preemergence, 31 g ai/ha, scale 0 to 100, 0 no effect, 100 complete control
# [21] = Preemergence, 250 g ai/ha, visual, scale 0 no effect to 100 complete control
# [22] = 62 g ai/ha, scale 0 to 100 (0 no effect, 100 complete control)
# [23] = 16 g ai/ha, scale 0 to 100, 0 no effect, 100 complete control
# [24] = 31 g ai/ha, scale 0 to 100, 0 no effect, 100 complete control
# [25] = 125 g ai/ha, visual, scale 0 no effect to 100 complete control
# [26] = 250 g ai/ha, visual, scale 0 no effect to 100 complete control
# [27] = Preemergence, 125 g ai/ha, visual, scale 0 no effect to 100 complete control
# [28] = 125 g ai/ha, scale 0 to 100 (0 no effect, 100 complete control)
smiles,measurement,setting,value
"Cc1cc(C)c2sc(C)c(-c3c(O)c(C)nn(C)c3=O)c2c1 [Compound 2, 5-hydroxy-2,6-dimethyl-4-(2,5,7-trimethylbenzo[b]thien-3-yl)-3(2H)-pyridazinone]","Plant response rating, Pigweed, Palmer",[1]; [12],5
same,"Plant response rating, Pigweed, Palmer",[1]; [13],50
same,"Plant response rating, Pigweed, Palmer",[1]; [14],5
same,"Plant response rating, Pigweed, Palmer",[1]; [15],90
same,"Plant response rating, Pigweed, Palmer",[1]; [16],35
same,"Plant response rating, Pigweed, Palmer",[1]; [17],0
same,"Plant response rating, Pigweed, Palmer",[1]; [18],50
same,"Plant response rating, Pigweed, Palmer",[1]; [19],0
same,"Plant response rating, Pigweed, Palmer",[1]; [20],20
same,"Plant response rating, Pigweed, Palmer",[1]; [21],100
same,"Plant response rating, Lambsquarters",[2]; [22],98
same,"Plant response rating, Lambsquarters",[2]; [23],50
same,"Plant response rating, Lambsquarters",[2]; [24],100
same,"Plant response rating, Lambsquarters",[2]; [25],98
same,"Plant response rating, Lambsquarters",[2]; [26],100
same,"Plant response rating, Beggarticks",[3]; [12],100
same,"Plant response rating, Beggarticks",[3]; [13],100
same,"Plant response rating, Beggarticks",[3]; [14],100
same,"Plant response rating, Beggarticks",[3]; [16],100
same,"Plant response rating, Beggarticks",[3]; [17],85
same,"Plant response rating, Beggarticks",[3]; [18],95
same,"Plant response rating, Beggarticks",[3]; [19],90
same,"Plant response rating, Beggarticks",[3]; [20],100
same,"Plant response rating, Beggarticks",[3]; [27],100
same,"Plant response rating, Beggarticks",[3]; [21],100
same,"Plant response rating, Velvetleaf",[4]; [22],60
same,"Plant response rating, Velvetleaf",[4]; [28],80
same,"Plant response rating, Velvetleaf",[4]; [23],0
same,"Plant response rating, Velvetleaf",[4]; [24],30
same,"Plant response rating, Velvetleaf",[4]; [26],90
same,"Plant response rating, Waterhemp",[5]; [12],75
same,"Plant response rating, Waterhemp",[5]; [13],80
same,"Plant response rating, Waterhemp",[5]; [14],75
same,"Plant response rating, Waterhemp",[5]; [15],85
same,"Plant response rating, Waterhemp",[5]; [16],90
same,"Plant response rating, Waterhemp",[5]; [17],70
same,"Plant response rating, Waterhemp",[5]; [18],70
same,"Plant response rating, Waterhemp",[5]; [19],65
same,"Plant response rating, Waterhemp",[5]; [20],65
same,"Plant response rating, Waterhemp",[5]; [21],98
same,"Plant response rating, Field Bindweed",[6]; [12],65
same,"Plant response rating, Field Bindweed",[6]; [13],15
same,"Plant response rating, Field Bindweed",[6]; [14],75
same,"Plant response rating, Field Bindweed",[6]; [16],80
same,"Plant response rating, Field Bindweed",[6]; [17],60
same,"Plant response rating, Field Bindweed",[6]; [18],60
same,"Plant response rating, Field Bindweed",[6]; [19],0
same,"Plant response rating, Field Bindweed",[6]; [20],0
same,"Plant response rating, Field Bindweed",[6]; [27],35
same,"Plant response rating, Field Bindweed",[6]; [21],70
same,"Plant response rating, Johnsongrass",[7]; [22],20
same,"Plant response rating, Johnsongrass",[7]; [23],0
same,"Plant response rating, Johnsongrass",[7]; [24],35
same,"Plant response rating, Johnsongrass",[7]; [25],35
same,"Plant response rating, Johnsongrass",[7]; [26],50
same,"Plant response rating, Nightshade",[8]; [22],98
same,"Plant response rating, Nightshade",[8]; [28],98
same,"Plant response rating, Nightshade",[8]; [23],35
same,"Plant response rating, Nightshade",[8]; [24],75
same,"Plant response rating, Nightshade",[8]; [26],100
same,"Plant response rating, Surinam Grass",[9]; [22],75
same,"Plant response rating, Surinam Grass",[9]; [28],90
same,"Plant response rating, Surinam Grass",[9]; [23],5
same,"Plant response rating, Surinam Grass",[9]; [24],35
same,"Plant response rating, Surinam Grass",[9]; [26],95
same,"Plant response rating, Kochia",kochia (Kochia scoparia); [13],0
same,"Plant response rating, Kochia",kochia (Kochia scoparia); [19],0
same,"Plant response rating, Kochia",kochia (Kochia scoparia); [20],0
same,"Plant response rating, Kochia",kochia (Kochia scoparia); [27],0
same,"Plant response rating, Kochia",kochia (Kochia scoparia); [21],40
same,"Plant response rating, Foxtail, Giant",[10]; [22],95
same,"Plant response rating, Foxtail, Giant",[10]; [23],40
same,"Plant response rating, Foxtail, Giant",[10]; [24],75
same,"Plant response rating, Foxtail, Giant",[10]; [25],98
same,"Plant response rating, Foxtail, Giant",[10]; [26],98
same,"Plant response rating, Crabgrass, Large",[11]; [22],0
same,"Plant response rating, Crabgrass, Large",[11]; [23],0
same,"Plant response rating, Crabgrass, Large",[11]; [24],0
same,"Plant response rating, Crabgrass, Large",[11]; [25],30
same,"Plant response rating, Crabgrass, Large",[11]; [26],60
Cc1ccc2sc(Br)c(-c3c(O)c(C)nn(C)c3=O)c2c1 [Compound 79],"Plant response rating, Pigweed, Palmer",[1]; [12],35
same,"Plant response rating, Pigweed, Palmer",[1]; [13],70
same,"Plant response rating, Pigweed, Palmer",[1]; [14],40
same,"Plant response rating, Pigweed, Palmer",[1]; [15],70
same,"Plant response rating, Pigweed, Palmer",[1]; [16],75
same,"Plant response rating, Pigweed, Palmer",[1]; [18],40
same,"Plant response rating, Pigweed, Palmer",[1]; [20],75
same,"Plant response rating, Pigweed, Palmer",[1]; [21],75
same,"Plant response rating, Lambsquarters",[2]; [22],100
same,"Plant response rating, Lambsquarters",[2]; [28],100
same,"Plant response rating, Lambsquarters",[2]; [24],100
same,"Plant response rating, Lambsquarters",[2]; [26],100
same,"Plant response rating, Beggarticks",[3]; [12],100
same,"Plant response rating, Beggarticks",[3]; [13],100
same,"Plant response rating, Beggarticks",[3]; [14],100
same,"Plant response rating, Beggarticks",[3]; [15],100
same,"Plant response rating, Beggarticks",[3]; [16],100
same,"Plant response rating, Beggarticks",[3]; [18],100
same,"Plant response rating, Beggarticks",[3]; [20],100
same,"Plant response rating, Beggarticks",[3]; [21],100
same,"Plant response rating, Velvetleaf",[4]; [22],80
same,"Plant response rating, Velvetleaf",[4]; [28],95
same,"Plant response rating, Velvetleaf",[4]; [24],70
same,"Plant response rating, Velvetleaf",[4]; [26],100
same,"Plant response rating, Waterhemp",[5]; [12],60
same,"Plant response rating, Waterhemp",[5]; [13],100
same,"Plant response rating, Waterhemp",[5]; [14],70
same,"Plant response rating, Waterhemp",[5]; [15],100
same,"Plant response rating, Waterhemp",[5]; [16],80
same,"Plant response rating, Waterhemp",[5]; [18],50
same,"Plant response rating, Waterhemp",[5]; [20],75
same,"Plant response rating, Waterhemp",[5]; [21],100
same,"Plant response rating, Field Bindweed",[6]; [12],95
same,"Plant response rating, Field Bindweed",[6]; [13],90
same,"Plant response rating, Field Bindweed",[6]; [14],95
same,"Plant response rating, Field Bindweed",[6]; [15],100
same,"Plant response rating, Field Bindweed",[6]; [16],95
same,"Plant response rating, Field Bindweed",[6]; [18],80
same,"Plant response rating, Field Bindweed",[6]; [20],60
same,"Plant response rating, Field Bindweed",[6]; [21],100
same,"Plant response rating, Johnsongrass",[7]; [24],70
same,"Plant response rating, Johnsongrass",[7]; [26],65
same,"Plant response rating, Nightshade",[8]; [22],100
same,"Plant response rating, Nightshade",[8]; [28],100
same,"Plant response rating, Nightshade",[8]; [24],80
same,"Plant response rating, Nightshade",[8]; [26],100
same,"Plant response rating, Surinam Grass",[9]; [22],50
same,"Plant response rating, Surinam Grass",[9]; [28],60
same,"Plant response rating, Surinam Grass",[9]; [24],40
same,"Plant response rating, Surinam Grass",[9]; [26],80
same,"Plant response rating, Kochia",kochia (Kochia scoparia); [12],80
same,"Plant response rating, Kochia",kochia (Kochia scoparia); [13],70
same,"Plant response rating, Kochia",kochia (Kochia scoparia); [14],90
same,"Plant response rating, Kochia",kochia (Kochia scoparia); [15],100
same,"Plant response rating, Kochia",kochia (Kochia scoparia); [16],98
same,"Plant response rating, Kochia",kochia (Kochia scoparia); [18],70
same,"Plant response rating, Kochia",kochia (Kochia scoparia); [20],50
same,"Plant response rating, Kochia",kochia (Kochia scoparia); [21],100
same,"Plant response rating, Foxtail, Giant",[10]; [22],70
same,"Plant response rating, Foxtail, Giant",[10]; [28],85
same,"Plant response rating, Foxtail, Giant",[10]; [24],60
same,"Plant response rating, Foxtail, Giant",[10]; [26],90
same,"Plant response rating, Crabgrass, Large",[11]; [22],0
same,"Plant response rating, Crabgrass, Large",[11]; [28],20
same,"Plant response rating, Crabgrass, Large",[11]; [24],0
same,"Plant response rating, Crabgrass, Large",[11]; [26],30
